The text below walks through data of ChEMBL document CHEMBL1153496, “SAR studies on azasterols as potential anti-trypanosomal and anti-leishmanial agents” (Bioorg Med Chem, 2009).

Data set [1] in a line: Inhibition of Saccharomyces cerevisiae SMT.
The test system of data set [2] is Trypanosoma brucei rhodesiense. Briefly: Antitrypanosomal activity against Trypanosoma brucei rhodesiense blood stream form. Format: functional, organism-based.
A short description of data set [3]: Lipophilicity, log D of the compound. Format: physicochemical. As to conditions: octanol/water.
The next data set has as its system Trypanosoma cruzi. Briefly: Antitrypanosomal activity against Trypanosoma cruzi amastigotes. It counts as functional, organism-based.
The next data set has as its system Leishmania donovani. Description: Antitrypanosomal activity against Leishmania donovani amastigotes. Format: functional, organism-based.
A short description of data set [4]: Cytotoxicity against rat L6 cells. Format: cell-based. To be noted: read-out: TD50 (the source's name).
A further data set concerns KB. Briefly: Cytotoxicity against human KB cells. It counts as functional, cell-based.
Data set [5] is described as follows: Stability assessed as ionization at pH 7.4. Format: physicochemical.
Data set [6] can be described thus: Dissociation constant, pKa of the compound. It counts as physicochemical.

In data set [1], `C[C@H](CCCN(C)C)[C@H]1CC[C@H]2C3=C(CC[C@]12C)[C@@]1(C)CC[C@H](O)C[C@@H]1CC3` gave an IC50 of 0.08 µM.
Regarding `COC(=O)CCCNC[C@@H](C)[C@H]1CC[C@H]2[C@@H]3CC=C4C[C@@H](OC(=O)C(C)(C)C)CC[C@]4(C)[C@H]3CC[C@]12C`, the EC50 in data set [2] stood at 2.2 µM; in the data set with Trypanosoma cruzi, 9.7 µM; in the data set with Leishmania donovani it was 11.3 µM. Besides, in data set [3], the logD was 5.8. The CC50 in data set [4] was 11.1 µM.
As to `COC(=O)CCCNC[C@@H](C)[C@H]1CC[C@H]2[C@@H]3CC=C4C[C@@H](OC(C)=O)CC[C@]4(C)[C@H]3CC[C@]12C`, the EC50 was determined as 19.2 µM in the data set on KB, 0.012 µM in data set [2], 24.7 µM in the data set with Trypanosoma cruzi and 19.2 µM in the data set with Leishmania donovani.
`COC(=O)CCCNC[C@@H](C)[C@H]1CC[C@H]2[C@@H]3CC=C4C[C@@H](OC(=O)CCC(=O)O)CC[C@]4(C)[C@H]3CC[C@]12C`: the Activity in data set [5] is on record as 99%. Besides, the EC50 was found to be 9.8 µM in data set [2], 13.7 µM with Trypanosoma cruzi and 35.7 µM in the data set with Leishmania donovani. The pKa in data set [6] came to 4.4. Also, the logD in data set [3] is 4.1. The CC50 in data set [4] was determined as 76.7 µM.
`CC(=O)O[C@H]1CC[C@@]2(C)C(=CC[C@H]3[C@@H]4CC[C@H]([C@H](C)CCC(=O)NCCCCCC(=O)O)[C@@]4(C)CC[C@@H]32)C1`: the EC50 in data set [2] stood at 56 µM; in the data set on Trypanosoma cruzi, 41.9 µM; in the data set with Leishmania donovani, 2 µM. Besides, the CC50 in [4] was determined as 63 µM.
As to `CC(=O)O[C@H]1CC[C@@]2(C)C(=CC[C@H]3[C@@H]4CC[C@H]([C@H](C)CCC(=O)N(C)C)[C@@]4(C)CC[C@@H]32)C1`, the EC50 in data set [2] is 21.7 µM; in the data set with Trypanosoma cruzi, 28.2 µM; in the data set on Leishmania donovani, 24.6 µM. Further, in data set [4], the CC50 was over 202 µM.
Regarding `COC(=O)CCCNC[C@@H](C)[C@H]1CC[C@H]2[C@@H]3CC=C4C[C@@H](OC(=O)CC(C)C)CC[C@]4(C)[C@H]3CC[C@]12C`, the results for the EC50 (in [2]; in the data set with Trypanosoma cruzi; in the data set with Leishmania donovani) were 3.9 µM, 10.8 µM and 4.9 µM, respectively. The compound further yielded a logD in [3] of 6. Besides, the CC50 in [4] was 33.2 µM.
As to `CC(=O)O[C@H]1CC[C@@]2(C)C(=CC[C@H]3[C@@H]4CC[C@H]([C@H](C)CCCNCCCCCC(=O)O)[C@@]4(C)CC[C@@H]32)C1`, the EC50 was found to be 11.2 µM in [2], 28.9 µM in the data set with Trypanosoma cruzi and 11.4 µM in the data set on Leishmania donovani. Besides, the CC50 in [4] was 56 µM.
As for `COC(=O)CCCNC(=O)CC[C@@H](C)[C@H]1CC[C@H]2[C@@H]3CC=C4C[C@@H](OC(C)=O)CC[C@]4(C)[C@H]3CC[C@]12C`, the EC50 in data set [2] stood at 18.4 µM; in the data set with Trypanosoma cruzi, 19.7 µM; in the data set with Leishmania donovani, 3.1 µM. For the same compound, the CC50 in [4] is over 174 µM.
Consider `CC(=O)O[C@H]1CC[C@@]2(C)C(=CC[C@H]3[C@@H]4CC[C@H]([C@H](C)CCCN5CCCC5=O)[C@@]4(C)CC[C@@H]32)C1`, for which the EC50 in [2] worked out at 38.3 µM; in the data set with Trypanosoma cruzi it was 25 µM; in the data set with Leishmania donovani, 13.9 µM. In data set [4], the CC50 was 2.5 µM.
With `COC(=O)CCCNC[C@@H](C)[C@H]1CC[C@H]2[C@@H]3CC=C4C[C@@H](OC(=O)c5cccnc5)CC[C@]4(C)[C@H]3CC[C@]12C`, the EC50 in data set [2] was 0.8 µM; in the data set with Trypanosoma cruzi, 2.51 µM; with Leishmania donovani it was 13.7 µM. Besides, in data set [3], the logD came to 5.2. The CC50 in data set [4] was found to be 9.8 µM.
In the case of `COC(=O)CCCNC[C@@H](C)[C@H]1CC[C@H]2[C@@H]3CC=C4C[C@@H](OC(=O)CN(C)C)CC[C@]4(C)[C@H]3CC[C@]12C`, in [5], the Activity came to 34%. Also, the EC50 in [2] worked out at 6.2 µM; in the data set with Trypanosoma cruzi, 11.6 µM; in the data set with Leishmania donovani, 18.5 µM. The compound also registered a pKa in data set [6] of 7.1. The compound further yielded a logD in data set [3] of 4.4. In data set [4], the CC50 is 24 µM.
As for `CCC(=O)O[C@H]1CC[C@@]2(C)C(=CC[C@H]3[C@@H]4CC[C@H]([C@H](C)CNCCCC(=O)OC)[C@@]4(C)CC[C@@H]32)C1`, the concentration for a half-maximal effect (EC50) in data set [2] is 0.8 µM; in the data set on Trypanosoma cruzi it was 7.6 µM; in the data set on Leishmania donovani, 12.1 µM. In addition, in data set [3], the logD stood at 5.1. The CC50 in data set [4] was determined as 21.9 µM.
Take `CCCC(=O)O[C@H]1CC[C@@]2(C)C(=CC[C@H]3[C@@H]4CC[C@H]([C@H](C)CNCCCC(=O)OC)[C@@]4(C)CC[C@@H]32)C1`: the results for the EC50 (in data set [2]; with Trypanosoma cruzi; in the data set on Leishmania donovani) were 1.6 µM, 1.7 µM and 6.8 µM, respectively. In data set [3], this compound returned a logD of 5.6. Further, the CC50 in data set [4] came to 30.7 µM.
Turning to `COC(=O)CCCCCNCCC[C@@H](C)[C@H]1CC[C@H]2[C@@H]3CC=C4C[C@@H](OC(C)=O)CC[C@]4(C)[C@H]3CC[C@]12C`, the EC50 was 2 µM in data set [2], 11.1 µM in the data set on Trypanosoma cruzi and 11.7 µM in the data set on Leishmania donovani. Further, the CC50 in data set [4] is 7.4 µM.
For `COC(=O)CCCCCNC(=O)CC[C@@H](C)[C@H]1CC[C@H]2[C@@H]3CC=C4C[C@@H](OC(C)=O)CC[C@]4(C)[C@H]3CC[C@]12C`, in that order: 14.6 µM, 23 µM, 1.6 µM and over 165 µM.
Turning to `COC(=O)CCCNCCC[C@@H](C)[C@H]1CC[C@H]2[C@@H]3CC=C4C[C@@H](OC(C)=O)CC[C@]4(C)[C@H]3CC[C@]12C`, the EC50 in data set [2] turned out to be 1.8 µM; with Trypanosoma cruzi, 7.4 µM; in the data set on Leishmania donovani, 23.8 µM. The CC50 in data set [4] was found to be 5.8 µM.
